Key:
PctC-Tar = settings: read-out: EC50 by FRET ^ a; attractant response, tethering buffer pH 7.0, Hill fit
PA4915-LBD = molecular target: T1, PA4915-LBD (Pseudomonas aeruginosa, UniProt Q9HUP8); format: binding; settings: read-out: KD by ITC ^ b
T1 sequence (Q9HUP8 32-189 limits assumed): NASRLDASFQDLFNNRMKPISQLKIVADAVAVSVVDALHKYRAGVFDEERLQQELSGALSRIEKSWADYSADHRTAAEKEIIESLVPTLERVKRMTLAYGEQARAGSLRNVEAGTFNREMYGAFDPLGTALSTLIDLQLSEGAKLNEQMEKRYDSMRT

PctB-LBD (PA4310) = molecular target: T2, PctB-LBD (PA4310) (Pseudomonas aeruginosa, UniProt Q9HW91); format: binding; settings: read-out: KD by ITC ^ b
T2 sequence (Q9HW91 32-276 limits assumed): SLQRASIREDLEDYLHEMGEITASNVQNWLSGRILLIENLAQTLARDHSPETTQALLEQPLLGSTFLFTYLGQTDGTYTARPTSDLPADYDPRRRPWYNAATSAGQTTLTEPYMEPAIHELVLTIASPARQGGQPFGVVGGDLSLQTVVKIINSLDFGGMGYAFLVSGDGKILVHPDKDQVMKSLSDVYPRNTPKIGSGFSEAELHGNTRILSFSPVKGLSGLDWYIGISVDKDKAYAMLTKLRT

PctB-Tar = settings: read-out: EC50 by FRET ^ a; attractant response, tethering buffer pH 7.0, Hill fit
PctA-Tar = settings: read-out: EC50 by FRET ^ a; attractant response, tethering buffer pH 7.0, Hill fit

In the case of `NCCCCC(=O)O` [5-Aminovalerate], the EC50 (PctC-Tar) is reported as 1.5 ± 0.2 µM.

`NCCc1ccccc1` [2-Phenylethylamine] was tested, and the Kd (PA4915-LBD) was 58 ± 11 µM.

In the case of `NCCC[C@H](N)C(=O)O` [L-Ornithine], the Kd (PctB-LBD (PA4310)) is reported as 559 ± 80 µM, the EC50 (PctB-Tar) is reported as 10.2 ± 0.8 µM and the EC50 (PctA-Tar) is reported as 1.8 ± 0.2 µM.

Work on `COC(=O)CCCN` [Methyl 4-aminobutyrate] yielded an EC50 (PctC-Tar) of 2.9 ± 0.4 µM.
